Where two headings read alike, the source gives them in different places.
Assays:
[1] = system: Tenomodulin (Tnmd) gene expression in rat tail tendon fascicles; test: Ex vivo assay, Tnmd mRNA in tendon fascicles (qPCR); assay type: cell-based, Sprague Dawley rat
[2] = system: collagen type I (Col1a2) gene expression in rat tail tendon fascicles; test: Ex vivo assay, Col1a2 mRNA in tendon fascicles (qPCR); assay type: cell-based, Sprague Dawley rat
[3] = target: recombinant human Jak2 (aa808-1132) (Homo sapiens (Human), UniProt O60674); test: Kinase selectivity panel, substrate peptide phosphorylation (Caliper); assay type: biochemical; conditions: 45 uM ATP
[4] = system: Scleraxis (Scx) gene transcriptional activation in TT-D6 Scx-luciferase (ScxL) cell line; test: SCX-LUC in vitro assay (Scx-luciferase reporter); assay type: cell-based; conditions: Mus musculus
[5] = target: recombinant human Jak1 (aa 866-1154) (Homo sapiens (Human), UniProt P23458); test: Kinase selectivity panel, substrate peptide phosphorylation (Caliper); assay type: biochemical; conditions: 45 uM ATP
[6] = target: recombinant human Jak3 (aa811-1124) (Homo sapiens (Human), UniProt P52333); assay type: biochemical; conditions: 45 uM ATP
[7] = target: recombinant human Tyk2 (aa888-1187) (Homo sapiens (Human), UniProt P29597); test: Kinase selectivity panel, substrate peptide phosphorylation (Caliper); assay type: biochemical; conditions: 45 uM ATP
[8] = system: Scleraxis (Scx) gene expression in rat tail tendon fascicles; test: Ex vivo assay, Scx mRNA in tendon fascicles (qPCR); assay type: cell-based, Sprague Dawley rat
[9] = system: Rat tail fascicles; test: Ex vivo fascicle assay, mechanical testing; design: species or system rat (Sprague Dawley); conditions: 1 uM, 37° C., 4 weeks
Description: Tail from skeletal mature rat (Sprague Dawley, female, 30-50 weeks old) was removed and kept on ice. Approximately 40 mm long segment was cut from the mid-portion of the tail. Rat tail fascicles (n=12) were carefully extracted from the segment. Fascicles were then randomly selected into three groups, fresh (n=4), vehicle (n=4) and (S)-(1-((4-(3-amino-4-methyl-1H-indazol-5-yl)-3-methylphenyl)sulfonyl)-4,4-difluoropyrrolidin-2-yl)methanol (Test Compound A hereinafter) treated (n=4). Biomechanical properties were measure immediately after extraction for the fresh group. […]
Samples were clamped for mechanical testing using a standard uniaxial material testing machine (ElectroPuls E3000, 50N load-cell, Instron, US) in a custom environmental testing chamber filled with PBS. Samples were preloaded to a position where crimp (macroscopic fascicle waviness) disappeared and initial length (L0) based on grip-to-grip distance was recorded. […] Sample lengths and corresponding forces were recorded to calculate engineering stress and strain. Young's moduli were calculated from the linear region of the stress-strain curves. […]

[10] = system: tendon lesion; test: In vivo assay, endochondral ossification readout (Alcian blue) in tendon lesion; conditions: 1 mg peri-tendinous injection 3 days post-surgery
Experimental: Animals were treated 3 days post-surgery with 1 mg of compound of example 32 in 10 ul of vehicle delivered by injection under the skin in the peri-tendinous region. Tendons were harvested 25 days post-treatment. Strong Alcian blue staining could be seen in the lesion in the vehicle treated group which is typical of endochondral tissue forming which further ossifies with time. […] Definiens Tissue Studio software was used for quantitative image analysis of the Alcian blue positive area. Serial step sections encompassing 2 mm of the lesion were used for quantification.

Chain of recombinant human Tyk2 (aa888-1187) (P29597 888-1187): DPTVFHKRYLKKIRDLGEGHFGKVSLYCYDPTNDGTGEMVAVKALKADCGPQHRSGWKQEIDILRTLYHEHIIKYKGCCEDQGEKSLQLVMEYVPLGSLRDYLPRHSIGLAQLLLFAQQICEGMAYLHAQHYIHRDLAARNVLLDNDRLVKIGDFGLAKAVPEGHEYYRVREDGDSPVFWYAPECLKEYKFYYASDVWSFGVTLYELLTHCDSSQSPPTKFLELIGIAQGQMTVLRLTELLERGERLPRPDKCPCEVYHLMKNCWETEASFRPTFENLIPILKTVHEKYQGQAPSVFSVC
Chain of recombinant human Jak2 (aa808-1132) (O60674 808-1132): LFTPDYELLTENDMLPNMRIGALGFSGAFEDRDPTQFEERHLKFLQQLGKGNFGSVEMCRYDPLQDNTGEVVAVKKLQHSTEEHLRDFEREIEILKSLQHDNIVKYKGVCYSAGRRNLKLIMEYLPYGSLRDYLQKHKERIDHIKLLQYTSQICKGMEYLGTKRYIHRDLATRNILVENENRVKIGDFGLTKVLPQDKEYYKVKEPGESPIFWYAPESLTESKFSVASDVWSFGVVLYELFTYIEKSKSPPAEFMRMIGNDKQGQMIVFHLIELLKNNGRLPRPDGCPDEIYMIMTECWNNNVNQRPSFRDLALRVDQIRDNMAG
Chain of recombinant human Jak3 (aa811-1124) (P52333 811-1124): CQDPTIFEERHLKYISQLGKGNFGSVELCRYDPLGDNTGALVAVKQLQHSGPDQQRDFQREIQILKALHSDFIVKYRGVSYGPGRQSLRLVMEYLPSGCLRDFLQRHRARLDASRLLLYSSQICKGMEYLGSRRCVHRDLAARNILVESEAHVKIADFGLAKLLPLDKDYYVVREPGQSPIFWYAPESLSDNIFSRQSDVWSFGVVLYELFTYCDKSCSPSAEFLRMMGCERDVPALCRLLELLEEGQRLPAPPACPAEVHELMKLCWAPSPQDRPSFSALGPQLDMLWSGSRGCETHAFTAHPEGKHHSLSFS
Chain of recombinant human Jak1 (aa 866-1154) (P23458 866-1154): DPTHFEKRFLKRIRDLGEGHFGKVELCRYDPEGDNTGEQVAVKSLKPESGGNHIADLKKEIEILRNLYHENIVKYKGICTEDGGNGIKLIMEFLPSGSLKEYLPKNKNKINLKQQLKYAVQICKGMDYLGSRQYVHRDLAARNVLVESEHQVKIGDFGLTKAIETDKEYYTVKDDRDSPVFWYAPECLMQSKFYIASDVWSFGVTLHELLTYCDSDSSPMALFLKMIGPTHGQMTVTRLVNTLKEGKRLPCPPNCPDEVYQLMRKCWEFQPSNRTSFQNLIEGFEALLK

Row | Compound | EC50 ([1]; read-out: Ex vivo Tnmd (EC50 uM)) [µM] | EC50 ([2]; read-out: Ex vivo Col1a2 (EC50 uM)) [µM] | IC50 [3] [µM] | EC50 ([4]; read-out: Scx-Luc (EC50 uM)) [µM] | IC50 [5] [µM] | IC50 [6] [µM] | IC50 [7] [µM] | EC50 ([8]; read-out: Ex vivo SCX (EC50 uM)) [µM] | EC50 ([1]; 96 h, Table 3, four days, read-out: Ex vivo Tnmd (EC50 μM)) [µM] | EC50 ([2]; 96 h, Table 3, four days, read-out: Ex vivo Col1a2 (EC50 μM)) [µM] | EC50 ([4]; 96 h, Table 3, four days, read-out: Scx-Luc (EC50 μM)) [µM] | tendon degeneration in unloaded condition (tendon structure, failure stress, Young's modulus) [9] | effect on improper healing (aberrant differentiation towards chondrogenic and osteogenic lineages) ([10]; 25 days post-treatment) | Endochondral ossification readout Alcian Blue positive (mm^2/section), Mean ([10]; tendons harvested 25 days post-treatment) [mm^2/section] | EC50 ([8]; 96 h, Table 3, four days, read-out: Ex vivo Scx (EC50 μM)) [µM]
1 | Cc1cc(Nc2nc(N[C@@H](C)c3ncc(F)cn3)ncc2Cl)n[nH]1 [reference compound] | 3.3 | 2.61 | 0.0007 | 0.008 | 0.0002 | 0.06 | 0.002 | 3.37 |  |  |  |  |  |  | 
2 | Cc1cc(S(=O)(=O)N2CC(F)(F)C[C@H]2CO)ccc1-c1ccc2[nH]nc(N)c2c1C [Example 32, (S)-(1-((4-(3-amino-4-methyl-1H-indazol-5-yl)-3-methylphenyl)sulfonyl)-4,4-difluoropyrrolidin-2-yl)methanol] |  |  |  |  |  |  |  |  | 6.1 | 4.59 | 0.518 | could prevent the degeneration | able to counter some of the improper healing | 25.09 | 5.56
